{"source": "patent US20030166531A1", "about": "“Methods for modulating an immune response by modulating the interaction between CTLA4 and PP2A” (Genetics Institute, Inc., priority 2001, published 2003)", "key": {"[1]": {"molecular_target": "mutant K-less CTLA4 (K152A/K155A/K156A) expressed in doxycycline-induced Jurkat T cells (UniProt P16410)", "sequence (P16410 36-223, stated change not applied)": "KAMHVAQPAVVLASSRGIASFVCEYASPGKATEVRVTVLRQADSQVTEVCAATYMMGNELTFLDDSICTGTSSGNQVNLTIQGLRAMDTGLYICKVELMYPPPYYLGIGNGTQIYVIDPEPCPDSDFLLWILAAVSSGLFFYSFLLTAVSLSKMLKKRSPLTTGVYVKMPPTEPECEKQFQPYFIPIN", "assay": "cell-based or functional assay"}, "[2]": {"settings": "accumulates in filter feeding organisms such as shellfish; cited from earlier work"}, "IL-2 gene transcription": {"test_system": "IL-2 gene transcription", "assay": "Luciferase reporter assay under IL-2 promoter/enhancer in CTLA4-transfected Jurkat T cells stimulated with SEE and APCs", "format": "cell-based", "settings": "doxycycline-induced Jurkat cells, TCR-CTLA4 co-ligation with SEE and APCs, at maximal RLU response", "method": "FIGS. 2A-2B depict the inhibition of IL-2 promoter/enhancer controlled luciferase reporter gene transcription by wild type (FIG. 2A) or K-less (FIG. 2B) CTLA4 molecules. Wild type or K-less CTLA4-transfected T cells were stimulated for 4 hours with antigen presenting cells and increasing concentrations of SEE antigen in the absence (upper data points) or presence (lower data points) of doxycycline (5 μg/ml). Cells were lysed and a luciferase assay was performed.\nThe panel of Jurkat T cells transfected with a regulatable, doxycycline sensitive CTLA4 cDNA has been previously described (Carreno, B. M. et al. (2000) J. Immunol. 165:1352-1356; Baroja, M. L. et al. (2000) J. Immunol. 164:49-55). A luciferase reporter cDNA under the control of the interleukin-2 promoter and enhancer elements was transfected in these cells, and clones isolated after limiting dilution were used for these experiments. A 0.45 lymphoblastoid B cell line that expresses HLA-DR1 and B7.1 was also used. Both cell lines were cultured under standard conditions.\nDoxycycline treated Jurkat T cells (0.25×10^6 cells/group) were stimulated for 4 hours with 0.45 lymphoblastoid B cells (ratio 2:1) preincubated overnight with different concentrations of SEE. Luciferase assays were performed using the Promega Luciferase Assay System (Promega, Madison, Wis.). […]"}}, "data": [{"compound": "endogenous PP2AA (65 kD regulatory subunit of PP2A) of Jurkat T cells (from UniProt P30153 2-589)", "values": [{"measurement": "inhibition of luciferase activity (IL-2 promoter/enhancer reporter) upon TCR-CTLA4 co-ligation", "setting": "[1]", "result": "70 to 80", "unit": "%"}]}, {"compound": "C=C1[C@@H](O)[C@@H]2O[C@]3(CC[C@H](/C=C/[C@@H](C)[C@@H]4CC(C)=C[C@@]5(O[C@H](C[C@@](C)(O)C(=O)O)CC[C@H]5O)O4)O3)CC[C@H]2O[C@@H]1[C@@H](O)C[C@H](C)[C@H]1O[C@@]2(CCCCO2)CC[C@H]1C", "note": "[okadaic acid]", "values": [{"measurement": "toxicity when consumed by humans", "setting": "[2]", "result": "causes diarrhetic shellfish poisoning"}]}, {"compound": "wild type CTLA4: wild type CTLA4 expressed from a doxycycline-regulatable cDNA in transfected Jurkat T cells", "values": [{"measurement": "inhibition of luciferase activity (IL-2 promoter/enhancer reporter)", "setting": "IL-2 gene transcription", "result": "35-55%"}]}]}
